Where two headings read alike, the source gives them in different places.
Tests used:
Assay type in all cases: cell-based
HeLa = test: SRB colorimetric cell growth inhibition assay, HeLa; conditions: Homo sapiens, HeLa; for CC50: cell killing (cytotoxic effect); for IC (TGI): read-out: TGI HELA; for GI50: GI=growth inhibition, read-out: GI50 HELA
In short: (§1)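 Sulforhodamine B colorimetric readout measured cell growth and viability after continuous compound exposure of human cancer cell lines in 96-well plates. Triplicate wells gave mean ± SD, from which growth inhibition (GI), cytostatic total growth inhibition (TGI) and cytotoxic cell killing (LC) were calculated.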

LoVo = test: SRB colorimetric cell growth inhibition assay, LoVo; conditions: Homo sapiens, LoVo; for CC50: cell killing (cytotoxic effect); for GI50: GI=growth inhibition, read-out: GI50 LOVO; for IC (TGI): total growth inhibition (cytostatic effect), read-out: TGI LOVO
In short: as §1

HeLa-APL = test: SRB colorimetric cell growth inhibition assay, HeLa-APL (aplidine resistant); conditions: Homo sapiens; for GI50: read-out: GI50 HELA-APL; for CC50: cell killing (cytotoxic effect); for IC (TGI): read-out: TGI HELA-APL
In short: as §1

PANC-1 = test: SRB colorimetric cell growth inhibition assay, PANC-1; conditions: Homo sapiens; for GI50: GI=growth inhibition, read-out: GI50 PANC-1; for IC (TGI): total growth inhibition (cytostatic effect), read-out: TGI PANC-1; for CC50: cell killing (cytotoxic effect)
In short: as §1

LoVo-Dox = test: SRB colorimetric cell growth inhibition assay, LoVo-Dox (MDR); conditions: Homo sapiens; for GI50: GI=growth inhibition, read-out: GI50 LOVO-DOX; for IC (TGI): total growth inhibition (cytostatic effect), read-out: TGI LOVO-DOX; for CC50: cell killing (cytotoxic effect)
In short: as §1

SK-BR-3 = test: SRB colorimetric cell growth inhibition assay, SK-BR-3; conditions: Homo sapiens; for GI50: GI=growth inhibition, read-out: GI50 SK-BR-3; for IC (TGI): total growth inhibition (cytostatic effect), read-out: TGI SK-BR-3; for CC50: cell killing (cytotoxic effect)
In short: as §1

DU-145 = test: SRB colorimetric cell growth inhibition assay, DU-145; conditions: Homo sapiens; for GI50: GI=growth inhibition, read-out: GI50 DU-145; for IC (TGI): total growth inhibition (cytostatic effect), read-out: TGI DU-145; for CC50: cell killing (cytotoxic effect)
In short: as §1

IGROV-ET = test: SRB colorimetric cell growth inhibition assay, IGROV-ET (ET-743 resistant); conditions: Homo sapiens; for GI50: GI=growth inhibition, read-out: GI50 IGROV-ET; for IC (TGI): total growth inhibition (cytostatic effect), read-out: TGI IGROV-ET; for CC50: cell killing (cytotoxic effect)
In short: as §1

K-562 = test: SRB colorimetric cell growth inhibition assay, K-562; conditions: Homo sapiens; for GI50: GI=growth inhibition, read-out: GI50 K-562; for IC (TGI): total growth inhibition (cytostatic effect), read-out: TGI K-562; for CC50: cell killing (cytotoxic effect)
In short: as §1

LNCaP = test: SRB colorimetric cell growth inhibition assay, LNCaP; conditions: Homo sapiens, LNCaP; for GI50: GI=growth inhibition, read-out: GI50 LN-caP; for IC (TGI): total growth inhibition (cytostatic effect), read-out: TGI LN-caP; for CC50: cell killing (cytotoxic effect)
In short: as §1

A-549 = test: SRB colorimetric cell growth inhibition assay, A-549; conditions: Homo sapiens; for GI50: GI=growth inhibition, read-out: GI50 A-549; for IC (TGI): total growth inhibition (cytostatic effect), read-out: TGI A-549; for CC50: cell killing (cytotoxic effect)
In short: as §1

SK-MEL-28 = test: SRB colorimetric cell growth inhibition assay, SK-MEL-28; conditions: Homo sapiens; for GI50: GI=growth inhibition, read-out: GI50 MEL-28; for IC (TGI): total growth inhibition (cytostatic effect), read-out: TGI MEL-28; for CC50: cell killing (cytotoxic effect)
In short: as §1

IGROV = test: SRB colorimetric cell growth inhibition assay, IGROV; conditions: Homo sapiens, IGROV; for CC50: cell killing (cytotoxic effect); for GI50: GI=growth inhibition, read-out: GI50 IGROV; for IC (TGI): total growth inhibition (cytostatic effect), read-out: TGI IGROV
In short: as §1

HT-29 = test: SRB colorimetric cell growth inhibition assay, HT-29; conditions: Homo sapiens; for GI50: GI=growth inhibition, read-out: GI50 HT-29; for IC (TGI): total growth inhibition (cytostatic effect), read-out: TGI HT-29; for CC50: cell killing (cytotoxic effect)
In short: as §1

Structure (SMILES): COc1cc(-c2c3c4cc(OC)c(OC(=O)[C@@H](N)CO)cc4oc(=O)c3n3ccc4c(OC(=O)[C@@H](N)CO)c(OC)c(OC)cc4c23)ccc1OC(=O)[C@@H](N)CO [Compound 9]
- CC50 (HeLa; read-out: LC50 HELA, HELA): 4.06 µM
- IC (TGI) (HeLa): 0.459 µM
- GI50 (HeLa): 0.107 µM
- CC50 (LoVo; read-out: LC50 LOVO, LOVO): 2.3 µM
- GI50 (LoVo): 0.243 µM
- IC (TGI) (LoVo): 0.584 µM
- GI50 (HeLa-APL): 0.282 µM
- CC50 (HeLa-APL; read-out: LC50 HELA-APL, HELA-APL): 3.83 µM
- IC (TGI) (HeLa-APL): 1.23 µM
- GI50 (PANC-1; PANC-1, PANC-1): 0.2 µM
- IC (TGI) (PANC-1; PANC-1, PANC-1): 1.56 µM
- CC50 (PANC-1; PANC-1, read-out: LC50 PANC-1, PANC-1): 4.91 µM
- GI50 (LoVo-Dox; LOVO-DOX): 0.388 µM
- IC (TGI) (LoVo-Dox; LOVO-DOX): 1.14 µM
- CC50 (LoVo-Dox; read-out: LC50 LOVO-DOX, LOVO-DOX): 3.63 µM
- GI50 (SK-BR-3; SK-BR-3, SK-BR-3): 0.174 µM
- IC (TGI) (SK-BR-3; SK-BR-3, SK-BR-3): 0.374 µM
- CC50 (SK-BR-3; SK-BR-3, read-out: LC50 SK-BR-3, SK-BR-3): 0.806 µM
- GI50 (DU-145; DU-145, DU-145): 0.0543 µM
- IC (TGI) (DU-145; DU-145, DU-145): 0.169 µM
- CC50 (DU-145; DU-145, read-out: LC50 DU-145, DU-145): 0.615 µM
- GI50 (IGROV-ET; IGROV-ET): 0.132 µM
- IC (TGI) (IGROV-ET; IGROV-ET): 0.98 µM
- CC50 (IGROV-ET; read-out: LC50 IGROV-ET, IGROV-ET): 0.493 µM
- GI50 (K-562; K562, K-562): 0.0473 µM
- IC (TGI) (K-562; K562, K-562): 0.311 µM
- CC50 (K-562; K562, read-out: LC50 K-562, K-562): 4.18 µM
- GI50 (LNCaP; LN-caP): 0.174 µM
- IC (TGI) (LNCaP; LN-caP): 0.422 µM
- CC50 (LNCaP; read-out: LC50 LN-caP, LN-caP): 1.38 µM
- GI50 (A-549; A549, A-549): 0.323 µM
- IC (TGI) (A-549; A549, A-549): 1.15 µM
- CC50 (A-549; A549, read-out: LC50 A-549, A-549): 6.76 µM
- GI50 (SK-MEL-28; SK-MEL-28, MEL-28): 0.134 µM
- IC (TGI) (SK-MEL-28; SK-MEL-28, MEL-28): 0.516 µM
- CC50 (SK-MEL-28; SK-MEL-28, read-out: LC50 MEL-28, MEL-28): 2.11 µM
- CC50 (IGROV; read-out: LC50 IGROV, IGROV): 3 µM
- GI50 (IGROV): 0.182 µM
- IC (TGI) (IGROV): 0.909 µM
- GI50 (HT-29; HT-29, HT-29): 1.61 µM
- IC (TGI) (HT-29; HT-29, HT-29): 3.28 µM
- CC50 (HT-29; HT-29, read-out: LC50 HT-29, HT-29): 6.66 µM

Structure (SMILES): COc1cc2ccn3c(c(-c4ccc(OC(=O)[C@@H](NC(=O)OC(C)(C)C)C(C)C)c(OC)c4)c4c5cc(OC)c(OC(=O)[C@@H](NC(=O)OC(C)(C)C)C(C)C)cc5oc(=O)c43)c2cc1OC [Compound 15]
- GI50 (HeLa): 0.0579 µM
- CC50 (HeLa; read-out: LC50 HELA): 7.81 µM
- IC (TGI) (HeLa; total growth inhibition (cytostatic effect)): 1.41 µM
- GI50 (LoVo): 1.68 µM
- CC50 (LoVo; read-out: LC50 LOVO): 11 µM
- IC (TGI) (LoVo): 4.96 µM
- GI50 (HeLa-APL; HELA-APL, GI=growth inhibition): 2.43 µM
- CC50 (HeLa-APL; HELA-APL, read-out: LC50 HELA-APL): 11 µM
- IC (TGI) (HeLa-APL; HELA-APL, total growth inhibition (cytostatic effect)): 5.53 µM
- GI50 (PANC-1; PANC-1, PANC-1): 1.54 µM
- CC50 (PANC-1; PANC-1, PANC-1, read-out: LC50 PANC-1): 11 µM
- IC (TGI) (PANC-1; PANC-1, PANC-1): 5.26 µM
- GI50 (LoVo-Dox; LOVO-DOX): 11 µM
- CC50 (LoVo-Dox; LOVO-DOX, read-out: LC50 LOVO-DOX): 11 µM
- IC (TGI) (LoVo-Dox; LOVO-DOX): 11 µM
- GI50 (SK-BR-3; SK-BR-3, SK-BR-3): 0.0561 µM
- CC50 (SK-BR-3; SK-BR-3, SK-BR-3, read-out: LC50 SK-BR-3): 5.84 µM
- IC (TGI) (SK-BR-3; SK-BR-3, SK-BR-3): 0.635 µM
- GI50 (DU-145; DU-145, DU-145): 0.0685 µM
- CC50 (DU-145; DU-145, DU-145, read-out: LC50 DU-145): 11 µM
- IC (TGI) (DU-145; DU-145, DU-145): 3.08 µM
- GI50 (IGROV-ET; IGROV-ET): 6.87 µM
- CC50 (IGROV-ET; IGROV-ET, read-out: LC50 IGROV-ET): 11 µM
- IC (TGI) (IGROV-ET; IGROV-ET): 11 µM
- GI50 (K-562; K562, K-562): 1.6 µM
- CC50 (K-562; K562, K-562, read-out: LC50 K-562): 9.57 µM
- IC (TGI) (K-562; K562, K-562): 3.91 µM
- GI50 (LNCaP; LN-caP): 0.056 µM
- CC50 (LNCaP; LN-caP, read-out: LC50 LN-caP): 3.93 µM
- IC (TGI) (LNCaP; LN-caP): 0.609 µM
- GI50 (A-549; A549, A-549): 0.0541 µM
- CC50 (A-549; A549, A-549, read-out: LC50 A-549): 11 µM
- IC (TGI) (A-549; A549, A-549): 1.46 µM
- GI50 (SK-MEL-28; SK-MEL-28, MEL-28): 0.0482 µM
- CC50 (SK-MEL-28; SK-MEL-28, MEL-28, read-out: LC50 MEL-28): 7.24 µM
- IC (TGI) (SK-MEL-28; SK-MEL-28, MEL-28): 1.64 µM
- GI50 (IGROV): 0.0862 µM
- CC50 (IGROV; read-out: LC50 IGROV): 9.76 µM
- IC (TGI) (IGROV): 2.03 µM
- GI50 (HT-29; HT-29, HT-29): 0.0473 µM
- CC50 (HT-29; HT-29, HT-29, read-out: LC50 HT-29): 9.17 µM
- IC (TGI) (HT-29; HT-29, HT-29): 0.111 µM
